Assay results: US20250179073A1, “TRICYCLIC HETEROCYCLE COMPOUNDS AS IAP ANTAGONISTS” (Ascentage Pharma (Suzhou) Co., Ltd., priority 2022, published 2025)

Key:
MDA-MB-231 cells = assay: Cell proliferation assay (CellTiter-Glo), MDA-MB-231; assay type: cell-based; details: Homo sapiens, MDA-MB-231, 72 h, 72 h treatment, Celltiter-Glo luminescence
How it was run: (§1)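 MDA-MB-231 (RPMI-1640/10% FBS) and EVSA-T (MEM/10% FBS) cells, 10000 cells/well, exposed 72 h to compound at […]. Viability read by CellTiter-Glo luminescence after 15 min at room temperature. IC50 from control-normalised curve fitting.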

EVSA-T cells = assay: Cell proliferation assay (CellTiter-Glo), EVSA-T; assay type: cell-based; details: Homo sapiens, EVSA-T, 72 h, 72 h treatment, Celltiter-Glo luminescence
How it was run: as §1

SMILES | IC50 (MDA-MB-231 cells) | IC50 (EVSA-T cells)
C[C@@H]1CN(CC(=O)N2CC(C)(C)c3c2cc(Cc2ccc(F)cc2)c2ncnn32)[C@@H](CN2Cc3cnccc3C2=O)CN1 [Compound 96, 2-(((2R,5R)-1-(2-(4-(4-fluorobenzyl)-8,8-dimethyl-7,8-dihydro-6H-pyrrolo[2,3-e][1,2,4]triazolo[1,5-a]pyridin-6-yl)-2-oxoethyl)-5-methylpiperazin-2-yl)methyl)-2,3-dihydro-1H-pyrrolo[3,4-c]pyridin-1-one] | 52 nM | 5 nM
C[C@@H]1CN(CC(=O)N2CC(C)(C)c3c2cc(Cc2ccc(F)cc2)c2ncnn32)[C@@H](CN2CCOC[C@H]2C)CN1 [Example 14, 1-(4-(4-fluorobenzyl)-8,8-dimethyl-7,8-dihydro-6H-pyrrolo[2,3-e][1,2,4]triazolo[1,5-a]pyridin-6-yl)-2-((2R,5R)-5-methyl-2-(((R)-3-methylmorpholino)methyl)piperazin-1-yl)ethan-1-one] | 42 nM | 6 nM
C[C@@H]1CN(CC(=O)N2CC(C)(C)c3c2cc(Cc2cccc(F)c2)c2ncnn32)[C@@H](CN2CCOC[C@H]2C)CN1 [Compound 39, 1-(4-(3-fluorobenzyl)-8,8-dimethyl-7,8-dihydro-6H-pyrrolo[2,3-e][1,2,4]triazolo[1,5-a]pyridin-6-yl)-2-((2R,5R)-5-methyl-2-(((R)-3-methylmorpholino)methyl)piperazin-1-yl)ethan-1-one] | 150 nM | 34 nM
C[C@@H]1CN(CC(=O)N2CC(C)(C)c3c2cc(Cc2ccc(F)cc2)c2nnc(C(F)(F)F)n32)[C@@H](CN2CCOC[C@H]2C)CN1 [Example 13, 1-(4-(4-fluorobenzyl)-8,8-dimethyl-1-(trifluoromethyl)-7,8-dihydro-6H-pyrrolo[2,3-e][1,2,4]triazolo[4,3-a]pyridin-6-yl)-2-((2R,5R)-5-methyl-2-(((R)-3-methylmorpholino)methyl)piperazin-1-yl)ethan-1-one] | 170 nM | 9 nM
C[C@@H]1CN(CC(=O)N2CC(C)(C)c3c2cc(Cc2ccc(F)cc2)c2ncnn32)[C@@H](CN2CCN(CC#N)C[C@H]2C)CN1 [Compound 182, 2-((R)-4-(((2R,5R)-1-(2-(4-(4-fluorobenzyl)-8,8-dimethyl-7,8-dihydro-6H-pyrrolo[2,3-e][1,2,4]triazolo[1,5-a]pyridin-6-yl)-2-oxoethyl)-5-methylpiperazin-2-yl)methyl)-3-methylpiperazin-1-yl)acetonitrile] | 17 nM | 2 nM
C[C@@H]1CN(CC(=O)N2CC(C)(C)c3c2cc(Cc2ccc(F)cc2F)c2ncnn32)[C@@H](CN2CCOC[C@H]2C)CN1 [Compound 40, 1-(4-(2,4-difluorobenzyl)-8,8-dimethyl-7,8-dihydro-6H-pyrrolo[2,3-e][1,2,4]triazolo[1,5-a]pyridin-6-yl)-2-((2R,5R)-5-methyl-2-(((R)-3-methylmorpholino)methyl)piperazin-1-yl)ethan-1-one] | 59 nM | 3 nM
C[C@@H]1CN(CC(=O)N2CC(C)(C)c3c2cc(Cc2ccc(F)cc2)c2ncc(Br)n32)[C@@H](CN2CCOC[C@H]2C)CN1 [Compound 119, 1-(1-bromo-4-(4-fluorobenzyl)-8,8-dimethyl-7,8-dihydro-6H-imidazo[1,2-a]pyrrolo[2,3-e]pyridin-6-yl)-2-((2R,5R)-5-methyl-2-(((R)-3-methylmorpholino)methyl)piperazin-1-yl)ethan-1-one] | 100 nM | 6 nM
C[C@@H]1CN(CC(=O)N2CC(C)(C)c3c2cc(Cc2ccc(F)cc2)c2nn(C[C@H]4COCCO4)c(=O)n32)[C@@H](CN2CCOC[C@H]2C)CN1 [Compound 237, 2-(((S)-1,4-dioxan-2-yl)methyl)-4-(4-fluorobenzyl)-8,8-dim ethyl-6-(2-((2R,5R)-5-methyl-2-(((R)-3-methylmorpholino)methyl)piperazin-1-yl)acetyl)-2,6,7,8-tetrahydro-1H-pyrrolo[2,3-e][1,2,4]triazolo[4,3-a]pyridin-1-one] | 46 nM | 1.5 nM
C[C@@H]1CN(CC(=O)N2CC(C)(C)c3c2cc(Cc2ccc(F)cc2)c2nc(C(F)(F)F)cn32)[C@@H](CN2CCOC[C@H]2CF)CN1 [Compound 167, 1-(4-(4-fluorobenzyl)-8,8-dimethyl-2-(trifluoromethyl)-7,8-dihydro-6H-imidazo[1,2-a]pyrrolo[2,3-e]pyridin-6-yl)-2-((2R,5R)-2-((3-(fluoromethyl)morpholino)methyl)-5-methylpiperazin-1-yl)ethan-1-one] | 120 nM | 16 nM
C[C@@H]1CN(CC(=O)N2CC(C)(C)c3c2cc(Cc2ccc(F)cc2)c2nc(C(C)(C)O)nn32)[C@@H](CN2CCOC[C@H]2C)CN1 [Compound 137, 1-(4-(4-fluorobenzyl)-2-(2-hydroxypropan-2-yl)-8,8-dimethyl-7,8-dihydro-6H-pyrrolo[2,3-e][1,2,4]triazolo[1,5-a]pyridin-6-yl)-2-((2R,5R)-5-methyl-2-(((R)-3-methylmorpholino)methyl)piperazin-1-yl)ethan-1-one] | 190 nM | 12 nM
C[C@@H]1CN(CC(=O)N2CC(C)(C)c3c2cc(Cc2ccc(F)cc2)c2nc(CC#N)nn32)[C@@H](CN2CCOC[C@H]2C)CN1 [Compound 196, 2-(4-(4-fluorobenzyl)-8,8-dimethyl-6-(2-((2R,5R)-5-methyl-2-(((R)-3-methylmorpholino)methyl)piperazin-1-yl)acetyl)-7,8-dihydro-6H-pyrrolo[2,3-e][1,2,4]triazolo[1,5-a]pyridin-2-yl)acetonitrile] | 43 nM | 4 nM
C[C@@H]1CN(CC(=O)N2CC(C)(C)c3c2cc(Cc2ccc(F)cc2)c2nn(C(C)(C)CO)c(=O)n32)[C@@H](CN2CCOC[C@H]2C)CN1 [Compound 260, 4-(4-fluorobenzyl)-2-(1-hydroxy-2-methylpropan-2-yl)-8,8-dimethyl-6-(2-((2R,5R)-5-methyl-2-(((R)-3-methylmorpholino)methyl)piperazin-1-yl)acetyl)-2,6,7,8-tetrahydro-1H-pyrrolo[2,3-e][1,2,4]triazolo[4,3-a]pyridin-1-one] | 29 nM | 2.7 nM
C[C@@H]1CN(CC(=O)N2CC(C)(C)c3c2cc(Cc2ccc(F)cc2)c2n[nH]c(=O)n32)[C@@H](CN2CCOC[C@H]2C)CN1 [Compound 152, 4-(4-fluorobenzyl)-8,8-dimethyl-6-(2-((2R,5R)-5-methyl-2-(((R)-3-methylmorpholino)methyl)piperazin-1-yl)acetyl)-2,6,7,8-tetrahydro-1H-pyrrolo[2,3-e][1,2,4]triazolo[4,3-a]pyridin-1-one] | 170 nM | 30 nM
C[C@@H]1CN(CC(=O)N2CC3(CC3)c3c2cc(Cc2ccc(F)cc2)c2ncnn32)[C@@H](CN2CCOC[C@H]2C)CN1 [Compound 56, 1-(4′-(4-fluorobenzyl)spiro[cyclopropane-1,8′-pyrrolo[2,3-e][1,2,4]triazolo [1,5-a]pyridin]-6′(7′H)-yl)-2-((2R,5R)-5-methyl-2-(((R)-3-methylmorpholino)methyl)piperazin-1-yl)ethan-1-one] | 35 nM | 9 nM
COCC(COC)n1nc2c(Cc3ccc(F)cc3)cc3c(n2c1=O)C(C)(C)CN3C(=O)CN1C[C@@H](C)NC[C@@H]1CN1CCOC[C@H]1C [Compound 261, 2-(1,3-dimethoxypropan-2-yl)-4-(4-fluorobenzyl)-8,8-dimethyl-6-(2-((2R,5R)-5-methyl-2-(((R)-3-methylmorpholino)methyl)piperazin-1-yl)acetyl)-2,6,7,8-tetrahydro-1H-pyrrolo[2,3-e][1,2,4]triazolo[4,3-a]pyridin-1-one] | 17 nM | 3.2 nM
C[C@@H]1CN(CC(=O)N2CC(C)(C)c3c2cc(Cc2ccc(F)cc2)c2nc(N4CCN(C)C4=O)nn32)[C@@H](CN2CCOC[C@H]2C)CN1 [Compound 235, 1-(4-(4-fluorobenzyl)-8,8-dimethyl-6-(2-((2R,5R)-5-methyl-2-(((R)-3-methylmorpholino)methyl)piperazin-1-yl)acetyl)-7,8-dihydro-6H-pyrrolo[2,3-e][1,2,4]triazolo[1,5-a]pyridin-2-yl)-3-methylimidazolidin-2-one] | 38 nM | 1.3 nM
C[C@@H]1CN(CC(=O)N2CC(C)(C)c3c2cc(Cc2ccc(F)cc2)c2nn(CCN(C)C)c(=O)n32)[C@@H](CN2CCOC[C@H]2C)CN1 [Compound 243, 2-(2-(dimethylamino)ethyl)-4-(4-fluorobenzyl)-8,8-dimethyl-6-(2-((2R,5R)-5-methyl-2-(((R)-3-methylmorpholino)methyl)piperazin-1-yl)acetyl)-2,6,7,8-tetrahydro-1H-pyrrolo[2,3-e][1,2,4]triazolo[4,3-a]pyridin-1-one] | 95 nM | 14.5 nM
C[C@@H]1CN(CC(=O)N2CC(C)(C)c3c2cc(Cc2ccc(F)cc2)c2nc(N4CCS(=O)(=O)CC4)nn32)[C@@H](CN2CCOC[C@H]2C)CN1 [Compound 199, 1-(2-(1,1-dioxidothiomorpholino)-4-(4-fluorobenzyl)-8,8-dimethyl-7,8-dihydro-6H-pyrrolo[2,3-e][1,2,4]triazolo[1,5-a]pyridin-6-yl)-2-((2R,5R)-5-methyl-2-(((R)-3-methylmorpholino)methyl)piperazin-1-yl)ethan-1-one] | 20 nM | 6 nM
C[C@@H]1CN(CC(=O)N2CC(C)(C)c3c2cc(Cc2ccc(Cl)cc2)c2ncnn32)[C@@H](CN2CCOC[C@H]2C)CN1 [Compound 44, 1-(4-(4-chlorobenzyl)-8,8-dimethyl-7,8-dihydro-6H-pyrrolo[2,3-e][1,2,4]triazolo[1,5-a]pyridin-6-yl)-2-((2R,5R)-5-methyl-2-(((R)-3-methylmorpholino)methyl)piperazin-1-yl)ethan-1-one] | 75 nM | 9 nM
